For 17 compounds, IC50 results are on record in EP4813991A1 (iLeadBMS Co., Ltd., priority 2023, dated 2025).

One test addresses CDK13 (Homo sapiens, UniProt Q14004). The test can be described thus: CDK13 kinase inhibitory activity assay (33P-ATP filter binding). The conditions noted are these: kinase reaction 120 minutes, 33P-gamma-ATP; read-out: CDK13 IC50. It counts as biochemical. The procedure: (§1) Before initiating the CDK12 and CDK13 kinase reactions, each Example compound was dissolved and diluted in DMSO as a solvent across 9 concentration ranges at room temperature. The diluted solutions were then incubated with a mixture of kinase and substrate (and cofactors, if required) for 20 minutes. Next, radioisotope-labeled ATP (^33P-gamma-ATP) was added to proceed with the kinase reaction at room temperature for 120 minutes. After the reaction was completed, the reaction mixture was transferred to a filter paper that binds the radioisotope-labeled catalytic product (^33P-substrate). Unreacted ^33P-ATP was removed by washing with 0.75 % phosphoric acid, and then the radioactive phosphorylated substrate remaining on the filter paper was measured. Kinase activity data were expressed as a percentage of the kinase activity remaining in the test sample compared to a DMSO control group. The half-maximal inhibitory concentration (IC50) for each kinase was calculated using Prism (Graphpad) software.

In test [1] the target is T1, CDK12 (Homo sapiens, UniProt Q9NYV4). The test can be described thus: CDK12 kinase inhibitory activity assay (33P-ATP filter binding). It is filed as biochemical. As for the experimental part:
as §1

Test [2] deals with T1, CDK12. The test can be described thus: Cellular CDK12 inhibitory activity assay (Ser2 phosphorylation of RNA polymerase II subunit B1 CTD in MDA-MB-231 cells). Also noted: using MDA-MB-231 breast cancer cells; endogenous in cells; host or cells: MDA-MB-231. The conditions noted are these: MDA-MB-231 cells, 6 hours treatment; read-out: pRpbl CTD S2 IC50. It counts as cell-based. The procedure: MDA-MB-231 cells were dispensed into a 96-well plate at 100 µL of cell suspension per well using L-15 (Invitrogen) medium containing 10 % FBS, followed by overnight incubation in a cell incubator at 37 °C and 0 % CO2. The next day, each Example compound dissolved in DMSO across 9 concentration ranges and a DMSO control group were treated on the MDA-MB-231 cells at 37 °C and 0 % CO2 for 6 hours. After the compound treatment, the medium in the 96-well plate was removed, and 60 µL of a fixing solution (4.0 % paraformaldehyde in PBS) was added to each well, followed by standing for 20 minutes. After removing the fixing solution and washing with PBS, 60 µL of PBS containing 0.1 % Triton X-100 was dispensed into each well, followed by shaking at room temperature for 15 minutes. After washing with PBS, 100 µL of blocking buffer was added, followed by shaking at room temperature for 1 hour. After removing the blocking buffer, primary antibodies, which are RNA polymerase II subunit B1 phospho-Ser2 (1:500, Cell signaling technology) and RNA polymerase II subunit B1 carboxy-terminal domain (1:200, Cell signaling technology), were added at 60 µL per well and reacted overnight at 4 °C. After adding 150 µL of PBS containing 0.1 % Triton X-100 and washing at least twice by shaking at room temperature for 5 minutes, 60 µL of a secondary antibody was added, followed by shaking at room temperature for 1 hour while blocking light. After adding 150 µL of PBS containing 0.1 % Triton X-100 and washing at least twice by shaking at room temperature for 5 minutes, 150 µL of PBS was added again, followed by washing at least twice by shaking at room temperature for 5 minutes. The plate was scanned using a Li-COR Odyssey machine with the wells filled with PBS. IC50 values were calculated by fitting a dose-response curve using a 4-parameter model of Prism (Graphpad) software.

In test [3] the test system is MDA-MB-231 breast cancer cells. Put plainly: Proliferation inhibitory activity assay against MDA-MB-231 breast cancer cells. It is filed as cell-based. As to conditions: Homo sapiens, 72 hours, CellTiter Glo, relative IC50. As for the experimental part:
Experiments were performed using the MDA-MB-231 breast cancer cell line to measure the cell proliferation inhibitory ability of each Example compound. MDA-MB-231 cells were dispensed into a 96-well plate at 100 µL of cell suspension per well using L-15 (Invitrogen) medium containing 10 % FBS, followed by incubation in a cell incubator at 37 °C and 0 % CO2. The next day, each Example compound dissolved and diluted in DMSO across 9 concentration ranges and a DMSO control group were treated on the cells for 72 hours. After the compound treatment was completed, 100 µL of CellTiter Glo (Promega) reagent was added to each well of the 96-well plate, followed by shaking for 10 minutes and standing at room temperature for 10 minutes. Luminescence signals were measured after inserting the 96-well plate into an Envision plate reader (PerkinElmer). Relative IC50 values were calculated by fitting a dose-response curve using XLfit (IDBS Ltd) software.
The breast cancer cell proliferation inhibitory activities of the Example compounds measured by the above method were evaluated according to the following criteria, and the results are presented in Table 13.
(Cellular ATP, detected with luciferase, serves as a proxy for viable cell number.)

[4] abbreviates: kinase reaction 120 minutes, 33P-gamma-ATP, read-out: CDK12 IC50.

T1 sequence (Q9NYV4 whole entry, species assumed): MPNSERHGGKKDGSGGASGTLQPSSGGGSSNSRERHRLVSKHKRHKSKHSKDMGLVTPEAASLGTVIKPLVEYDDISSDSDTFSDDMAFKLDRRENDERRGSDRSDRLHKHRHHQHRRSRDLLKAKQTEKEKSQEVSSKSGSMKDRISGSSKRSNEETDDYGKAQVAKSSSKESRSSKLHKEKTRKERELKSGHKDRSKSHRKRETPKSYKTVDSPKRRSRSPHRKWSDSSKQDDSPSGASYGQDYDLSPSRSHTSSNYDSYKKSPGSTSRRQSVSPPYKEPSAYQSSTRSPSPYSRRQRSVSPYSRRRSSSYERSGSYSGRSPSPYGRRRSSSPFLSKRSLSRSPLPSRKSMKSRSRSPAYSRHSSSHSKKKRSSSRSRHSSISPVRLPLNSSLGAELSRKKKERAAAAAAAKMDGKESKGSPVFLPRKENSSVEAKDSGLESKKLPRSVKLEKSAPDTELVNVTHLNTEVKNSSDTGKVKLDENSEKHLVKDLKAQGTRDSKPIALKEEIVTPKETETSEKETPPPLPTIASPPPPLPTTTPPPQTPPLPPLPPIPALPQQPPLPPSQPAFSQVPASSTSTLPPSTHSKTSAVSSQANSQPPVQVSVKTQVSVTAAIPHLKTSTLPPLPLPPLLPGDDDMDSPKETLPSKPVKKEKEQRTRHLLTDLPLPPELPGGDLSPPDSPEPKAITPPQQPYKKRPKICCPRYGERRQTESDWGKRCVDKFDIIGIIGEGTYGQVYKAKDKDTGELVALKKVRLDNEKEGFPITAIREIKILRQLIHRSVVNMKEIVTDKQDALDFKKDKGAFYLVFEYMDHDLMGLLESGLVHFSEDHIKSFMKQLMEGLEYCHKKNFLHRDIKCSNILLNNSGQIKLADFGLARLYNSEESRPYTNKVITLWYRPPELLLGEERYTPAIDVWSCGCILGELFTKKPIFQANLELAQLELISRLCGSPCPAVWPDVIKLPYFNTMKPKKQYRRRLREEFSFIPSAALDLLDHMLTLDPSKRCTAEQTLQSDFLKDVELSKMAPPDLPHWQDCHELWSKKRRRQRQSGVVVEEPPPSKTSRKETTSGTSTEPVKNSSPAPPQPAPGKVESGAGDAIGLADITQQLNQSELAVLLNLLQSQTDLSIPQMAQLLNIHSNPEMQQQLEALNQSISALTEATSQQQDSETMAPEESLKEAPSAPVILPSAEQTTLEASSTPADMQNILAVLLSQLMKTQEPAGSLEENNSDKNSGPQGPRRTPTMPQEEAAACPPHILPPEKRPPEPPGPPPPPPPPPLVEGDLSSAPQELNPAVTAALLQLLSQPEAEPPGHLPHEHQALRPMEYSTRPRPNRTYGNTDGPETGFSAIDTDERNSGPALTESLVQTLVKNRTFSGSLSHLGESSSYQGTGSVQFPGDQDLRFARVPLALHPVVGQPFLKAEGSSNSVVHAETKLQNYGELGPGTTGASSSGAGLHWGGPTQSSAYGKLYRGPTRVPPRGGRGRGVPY
T1 sequence (O75909 whole entry partner, species assumed): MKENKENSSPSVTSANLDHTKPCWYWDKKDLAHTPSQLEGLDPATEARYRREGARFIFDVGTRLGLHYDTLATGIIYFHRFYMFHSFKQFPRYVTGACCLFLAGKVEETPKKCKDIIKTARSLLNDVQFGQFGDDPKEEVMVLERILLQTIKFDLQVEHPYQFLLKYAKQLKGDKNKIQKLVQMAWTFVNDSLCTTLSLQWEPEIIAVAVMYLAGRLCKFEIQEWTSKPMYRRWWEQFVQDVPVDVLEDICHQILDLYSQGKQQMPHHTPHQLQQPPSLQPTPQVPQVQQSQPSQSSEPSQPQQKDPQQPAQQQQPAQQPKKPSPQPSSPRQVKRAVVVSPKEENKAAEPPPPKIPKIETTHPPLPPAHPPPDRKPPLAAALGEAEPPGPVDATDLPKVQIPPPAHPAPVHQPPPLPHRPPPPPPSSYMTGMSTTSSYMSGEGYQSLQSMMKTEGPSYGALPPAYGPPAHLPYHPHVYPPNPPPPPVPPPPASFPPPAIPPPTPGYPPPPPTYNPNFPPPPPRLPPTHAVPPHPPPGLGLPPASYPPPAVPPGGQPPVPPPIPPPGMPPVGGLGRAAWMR
Sequence of CDK13 (Q14004 whole entry, species assumed): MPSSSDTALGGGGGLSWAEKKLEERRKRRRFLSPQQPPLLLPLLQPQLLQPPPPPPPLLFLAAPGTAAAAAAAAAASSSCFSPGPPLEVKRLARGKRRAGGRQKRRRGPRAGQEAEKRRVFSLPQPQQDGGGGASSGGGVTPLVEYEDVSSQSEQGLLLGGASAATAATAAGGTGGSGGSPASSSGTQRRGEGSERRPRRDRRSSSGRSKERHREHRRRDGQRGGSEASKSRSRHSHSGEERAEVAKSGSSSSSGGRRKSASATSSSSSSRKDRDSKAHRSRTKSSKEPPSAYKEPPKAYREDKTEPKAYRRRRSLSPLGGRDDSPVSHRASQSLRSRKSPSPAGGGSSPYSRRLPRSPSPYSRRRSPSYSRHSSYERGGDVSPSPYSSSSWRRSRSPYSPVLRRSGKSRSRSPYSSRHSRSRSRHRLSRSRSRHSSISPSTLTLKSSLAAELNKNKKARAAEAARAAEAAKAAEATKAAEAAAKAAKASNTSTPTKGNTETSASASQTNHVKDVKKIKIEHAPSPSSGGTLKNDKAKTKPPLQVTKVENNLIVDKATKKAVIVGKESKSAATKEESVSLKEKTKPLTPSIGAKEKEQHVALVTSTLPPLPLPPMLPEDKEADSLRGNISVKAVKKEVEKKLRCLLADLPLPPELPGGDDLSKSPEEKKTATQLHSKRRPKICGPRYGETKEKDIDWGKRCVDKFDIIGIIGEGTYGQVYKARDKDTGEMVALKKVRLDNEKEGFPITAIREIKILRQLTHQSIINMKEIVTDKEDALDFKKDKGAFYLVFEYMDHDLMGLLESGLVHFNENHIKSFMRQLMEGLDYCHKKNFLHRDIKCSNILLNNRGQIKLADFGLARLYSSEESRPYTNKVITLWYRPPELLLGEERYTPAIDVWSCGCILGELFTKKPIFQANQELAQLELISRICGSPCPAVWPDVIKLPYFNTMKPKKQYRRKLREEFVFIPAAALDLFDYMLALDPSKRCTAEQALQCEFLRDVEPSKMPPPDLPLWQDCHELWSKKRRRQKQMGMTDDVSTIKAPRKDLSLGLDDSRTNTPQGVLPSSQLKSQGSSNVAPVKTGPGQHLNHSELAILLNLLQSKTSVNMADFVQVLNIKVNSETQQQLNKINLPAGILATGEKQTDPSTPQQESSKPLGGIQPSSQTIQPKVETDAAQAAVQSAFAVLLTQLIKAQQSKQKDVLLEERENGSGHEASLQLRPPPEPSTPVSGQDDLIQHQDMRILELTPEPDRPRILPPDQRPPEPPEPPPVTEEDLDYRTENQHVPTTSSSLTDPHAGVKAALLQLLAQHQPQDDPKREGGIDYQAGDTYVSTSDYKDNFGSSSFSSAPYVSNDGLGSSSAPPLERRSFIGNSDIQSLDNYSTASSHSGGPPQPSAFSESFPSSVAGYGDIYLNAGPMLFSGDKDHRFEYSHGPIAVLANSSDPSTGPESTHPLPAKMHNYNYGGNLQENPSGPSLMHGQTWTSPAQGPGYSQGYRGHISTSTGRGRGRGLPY
Sequence of CDK13 (O75909 whole entry partner, species assumed): as the sequence (O75909 whole entry partner, species assumed) above

Take `FC(F)(F)c1cnc2c(NCc3nc4cc(Cl)c(Cl)cc4[nH]3)cc(N3CC4CC(C4)C3)nn12` [Example 31, 6-(3-azabicyclo[3.1.1]heptan-3-yl)-N-((5,6-dichloro-1H-benzo[d]imidazol-2-yl)methyl)-3-(trifluoromethyl)imidazo[1,2-b]pyridazin-8-amine]: the IC50 (in general, the concentration at which inhibition is half-maximal) was 100 to 500 nM at CDK13, over 500 nM at CDK12 [1] (setting [4]), 300 to 3000 nM on CDK12 [2] and over 500 nM in test [3].

Take `FC(F)(F)c1cnc2c(NCc3nc4cc(Cl)c(Cl)cc4[nH]3)cc(N3CC4CC(C3)O4)nn12` [Example 32]: the IC50 on CDK13 is 100 to 500 nM; at CDK12 [1] (read-out: CDK12 IC50, kinase reaction 120 minutes, 33P-gamma-ATP), 100 to 500 nM; at CDK12 [2], under 300 nM; in test [3] it was at most 50 nM.

Turning to `CN1C2CCC1CN(c1cc(NCc3nc4cc(Cl)c(Cl)cc4[nH]3)c3ncc(C(F)(F)F)n3n1)C2` [Example 33], the 50% inhibitory concentration (IC50) on CDK13 was under 100 nM; on CDK12 [1] (setting [4]), under 100 nM; at CDK12 [2] it was under 300 nM; in test [3], at most 50 nM.

As for `CC1(O)CC2CCC(C1)N2c1cc(NCc2nc3cc(Cl)c(Cl)cc3[nH]2)c2ncc(C(F)(F)F)n2n1` (centres unmarked) [Example 34], the IC50 at CDK13 is 100 to 500 nM; at CDK12 [1] it was over 500 nM; at CDK12 [2] it was under 300 nM; in test [3] it was 50 to 500 nM.

As for `NC1CN(c2cc(NCc3nc4cc(Cl)c(Cl)cc4[nH]3)c3ncc(C(F)(F)F)n3n2)C1` [Example 36], the half-maximal inhibitory concentration (IC50) at CDK13 was under 100 nM; at CDK12 [1] (setting [4]), under 100 nM; on CDK12 [2], under 300 nM; in test [3], at most 50 nM.

Take `N[C@@H]1CCN(c2cc(NCc3nc4ccc(F)c(F)c4[nH]3)c3ncc(C(F)(F)F)n3n2)C1` [Example 37]: the half-maximal inhibitory concentration (IC50) on CDK13 is under 100 nM; on CDK12 [1] (setting [4]) it was under 100 nM; on CDK12 [2], under 300 nM; in test [3] it was at most 50 nM.

In the case of `N[C@H]1CCN(c2cc(NCc3nc4ccc(F)c(F)c4[nH]3)c3ncc(C(F)(F)F)n3n2)C1` [Example 38], the IC50 on CDK13 was under 100 nM; on CDK12 [1] (setting [4]) it was under 100 nM; on CDK12 [2], under 300 nM; in test [3], at most 50 nM.

Take `C[C@@H]1CN(c2cc(NCc3nc4cc(Cl)c(Cl)cc4[nH]3)c3ncc(C(F)(F)F)n3n2)C[C@H](C)N1` [Example 39, N-((5,6-dichloro-1H-benzo[d]imidazol-2-yl)methyl)-6-((3S,5R)-3,5-dimethylpiperazin-1-yl)-3-(trifluoromethyl)imidazo[1,2-b]pyridazin-8-amine]: the half-maximal inhibitory concentration (IC50) was under 100 nM on CDK13, under 100 nM at CDK12 [1] (setting [4]), under 300 nM on CDK12 [2] and at most 50 nM in test [3].

Take `FC(F)(F)c1cnc2c(NCc3nc4cc(Cl)c(Cl)cc4[nH]3)cc(N3CC4CCC3CO4)nn12` (centres unmarked) [Example 43, 6-(2-oxa-5-azabicyclo[2.2.2]octan-5-yl)-N-((5,6-dichloro-1H-benzo[d]imidazol-2-yl)methyl)-3-(trifluoromethyl)imidazo[1,2-b]pyridazin-8-amine]: the IC50 was in the range of 100 to 500 nM on CDK13, 100 to 500 nM on CDK12 [1] (setting [4]), 300 to 3000 nM on CDK12 [2] and 50 to 500 nM in test [3].

For the compound `FC(F)(F)c1cnc2c(NCc3nc4cc(Cl)c(Cl)cc4[nH]3)cc(N3CC4(CNC4)C3)nn12` [Example 45, N-((5,6-dichloro-1H-benzo[d]imidazol-2-yl)methyl)-6-(2,6-diazaspiro[3.3]heptan-2-yl)-3-(trifluoromethyl)imidazo[1,2-b]pyridazin-8-amine], the IC50 at CDK13 was under 100 nM; on CDK12 [1] (setting [4]), 100 to 500 nM; at CDK12 [2], under 300 nM; in test [3], at most 50 nM.

On to `OC1CC2(C1)CN(c1cc(NCc3nc4cc(Cl)c(Cl)cc4[nH]3)c3ncc(C(F)(F)F)n3n1)C2` [Example 47, 2-(8-(((5,6-dichloro-1H-benzo[d]imidazol-2-yl)methyl)amino)-3-(trifluoromethyl)imidazo[1,2-b]pyridazin-6-yl)-2-azaspiro[3.3]heptan-6-ol], for which the IC50 at CDK13 was under 100 nM; on CDK12 [1] (setting [4]), 100 to 500 nM; on CDK12 [2] it was under 300 nM; in test [3], at most 50 nM.

Turning to `CC(C)(O)C1CN(c2cc(NCc3nc4cc(Cl)c(Cl)cc4[nH]3)c3ncc(C(F)(F)F)n3n2)C1` [Example 48, 2-(1-(8-(((5,6-dichloro-1H-benzo[d]imidazol-2-yl)methyl)amino)-3-(trifluoromethyl)imidazo[1,2-b]pyridazin-6-yl)azetidin-3-yl)propan-2-ol], the half-maximal inhibitory concentration (IC50) was 100 to 500 nM on CDK13, over 500 nM on CDK12 [1] (setting [4]), under 300 nM on CDK12 [2] and 50 to 500 nM in test [3].

Consider `N#CC1CCN(c2cc(NCc3nc4cc(Cl)c(Cl)cc4[nH]3)c3ncc(C(F)(F)F)n3n2)C1` (centres unmarked) [Example 49, 1-(8-(((5,6-dichloro-1H-benzo[d]imidazol-2-yl)methyl)amino)-3-(trifluoromethyl)imidazo[1,2-b]pyridazin-6-yl)pyrrolidine-3-carbonitrile], for which the concentration for half-maximal inhibition (IC50) at CDK13 is under 100 nM; at CDK12 [1] (setting [4]) it was under 100 nM; on CDK12 [2] it was under 300 nM; in test [3], at most 50 nM.

As to `OC1(C2CN(c3cc(NCc4nc5cc(Cl)c(Cl)cc5[nH]4)c4ncc(C(F)(F)F)n4n3)C2)CC1` [Example 50, 1-(1-(8-(((5,6-dichloro-1H-benzo[d]imidazol-2-yl)methyl)amino)-3-(trifluoromethyl)imidazo[1,2-b]pyridazin-6-yl)azetidin-3-yl)cyclopropan-1-ol], the IC50 on CDK13 lay within 100 to 500 nM; on CDK12 [1] (setting [4]), 100 to 500 nM; on CDK12 [2] it was 300 to 3000 nM; in test [3] it was 50 to 500 nM.

Turning to `CC(=O)N1CCN(c2cc(NCc3nc4cc(Cl)c(Cl)cc4[nH]3)c3ncc(C(F)(F)F)n3n2)CC1` [Example 51, 1-(4-(8-(((5,6-dichloro-1H-benzo[d]imidazol-2-yl)methyl)amino)-3-(trifluoromethyl)imidazo[1,2-b]pyridazin-6-yl)piperazin-1-yl)ethan-1-one], the concentration for half-maximal inhibition (IC50) on CDK13 was under 100 nM; on CDK12 [1] (setting [4]), under 100 nM; on CDK12 [2] it was under 300 nM; in test [3], at most 50 nM.

`CC1(O)CN(c2cc(NCc3nc4cc(Cl)c(Cl)cc4[nH]3)c3ncc(C(F)(F)F)n3n2)C1` [Example 52, 1-(8-(((5,6-dichloro-1H-benzo[d]imidazol-2-yl)methyl)amino)-3-(trifluoromethyl)imidazo[1,2-b]pyridazin-6-yl)-3-methylazetidin-3-ol]: the half-maximal inhibitory concentration (IC50) on CDK13 was under 100 nM; at CDK12 [1] (setting [4]) it was 100 to 500 nM; at CDK12 [2], under 300 nM; in test [3] it was at most 50 nM.

For the compound `CC1(O)CCN(c2cc(NCc3nc4cc(Cl)c(Cl)cc4[nH]3)c3ncc(C(F)(F)F)n3n2)CC1` [Example 53, 1-(8-(((5,6-dichloro-1H-benzo[d]imidazol-2-yl)methyl)amino)-3-(trifluoromethyl)imidazo[1,2-b]pyridazin-6-yl)-4-methylpiperidin-4-ol], the half-inhibitory concentration (IC50) on CDK13 is 100 to 500 nM; at CDK12 [1] (setting [4]), 100 to 500 nM; on CDK12 [2], under 300 nM; in test [3], at most 50 nM.
